Measured values taken from patent publication US20260274797A1, “PROPIONIC ACID DERIVATIVE AND USE THEREOF IN MEDICINE” (Xizang Haisco Pharmaceutical Co., Ltd., priority 2022, published 2026).
Where a name gives a salt, the structure may show the parent alone. Each block holds one compound with its values, some of them ahead of it.

How the values were obtained:
integrin α4β1 = biological target: T1, integrin α4β1 (Homo sapiens, UniProt P05556+P13612); assay: Integrin α4β1-mediated cell adhesion assay (Jurkat cells on VCAM); format: cell-based; details: for IC50: Jurkat cells adhering to VCAM-1, α4β1-mediated cell adhesion; for α4β1/α4β7: selectivity ratio, Jurkat (α4β1)/VCAM-1 IC50 over RPMI-8866 (α4β7)/MadCAM-1 IC50
T1 construct: Jurkat cells were collected, washed twice using DPBS buffer; endogenous in cells; host or cells: Jurkat cells
Protocol: VCAM was formulated into a final concentration of […] with a coating buffer, 50 μl of the solution was transferred to a 96-well plate, and the plate was coated with same at 4° C. overnight. The plate was washed with coating buffer three times, then 150 μl of a blocking solution (coating buffer containing 1% BSA) was added, and the plate was blocked at 37° C. for 1 h. Jurkat cells were collected, washed twice using DPBS buffer, and then resuspended to 4×10^6 cells/ml with an action buffer. 50 μl of the cell suspension was transferred to a 96-well plate so that the cell density reached 2×10^5 cells/well. Then 1 μl of the test compound at different concentration or DMSO was added and the plate was incubated at 37° C. for 1 h. The plate was washed with coating buffer to remove non-adherent cells. 50 μl of a substrate (4-nitrophenyl-N-acetyl-β-D-glucosaminide) was added and the plate was incubated at 37° C. for 2 h.
Coating buffer: DMEM+20 mM HEPES+0.4 mM MnCl2
Action buffer: DMEM+20 mM HEPES+0.1% BSA+0.4 mM MnCl2
DMEM: dulbecco's modified eagle medium;
HEPES: 2-[4-(2-hydroxyethyl)piperazin-1-yl]ethanesulfonic acid

integrin α4β7 = biological target: T2, integrin α4β7 (Homo sapiens, UniProt P13612+P26010); assay: Integrin α4β7 cell adhesion assay (RPMI8866 cells on MAdCAM-1); format: cell-based; details: RPMI8866 cells adhering to MAdCAM-1; α4β7-mediated cell adhesion; read-out: RPMI-8866 (α4β7)/MadCAM-1 IC50
T2 sequence (P13612 34-1032): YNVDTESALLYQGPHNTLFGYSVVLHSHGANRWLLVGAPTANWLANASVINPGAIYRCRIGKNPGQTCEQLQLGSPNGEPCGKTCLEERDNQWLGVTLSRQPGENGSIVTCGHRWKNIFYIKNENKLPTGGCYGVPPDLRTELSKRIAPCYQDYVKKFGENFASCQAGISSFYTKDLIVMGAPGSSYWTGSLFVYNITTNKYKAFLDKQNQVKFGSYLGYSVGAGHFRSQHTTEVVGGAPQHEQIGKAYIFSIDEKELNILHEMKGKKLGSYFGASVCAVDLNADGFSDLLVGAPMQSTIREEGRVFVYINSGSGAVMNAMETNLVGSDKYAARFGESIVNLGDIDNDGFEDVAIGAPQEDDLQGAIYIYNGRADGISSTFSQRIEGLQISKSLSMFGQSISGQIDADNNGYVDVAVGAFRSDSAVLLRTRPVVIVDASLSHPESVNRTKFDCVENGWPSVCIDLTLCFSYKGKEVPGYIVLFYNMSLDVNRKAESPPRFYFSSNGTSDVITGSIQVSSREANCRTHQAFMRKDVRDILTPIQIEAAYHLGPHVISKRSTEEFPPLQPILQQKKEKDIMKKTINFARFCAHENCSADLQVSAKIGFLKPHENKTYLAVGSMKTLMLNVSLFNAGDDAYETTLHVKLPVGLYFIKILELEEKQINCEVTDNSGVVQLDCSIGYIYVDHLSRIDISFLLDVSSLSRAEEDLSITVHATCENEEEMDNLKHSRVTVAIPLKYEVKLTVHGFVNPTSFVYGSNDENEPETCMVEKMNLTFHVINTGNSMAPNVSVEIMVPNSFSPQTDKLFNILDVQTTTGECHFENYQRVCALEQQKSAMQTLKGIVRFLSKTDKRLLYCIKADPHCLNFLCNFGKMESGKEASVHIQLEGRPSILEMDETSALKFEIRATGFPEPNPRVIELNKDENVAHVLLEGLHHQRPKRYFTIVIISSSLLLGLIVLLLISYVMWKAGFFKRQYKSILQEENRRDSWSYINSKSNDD
T2 sequence (P26010 20-798): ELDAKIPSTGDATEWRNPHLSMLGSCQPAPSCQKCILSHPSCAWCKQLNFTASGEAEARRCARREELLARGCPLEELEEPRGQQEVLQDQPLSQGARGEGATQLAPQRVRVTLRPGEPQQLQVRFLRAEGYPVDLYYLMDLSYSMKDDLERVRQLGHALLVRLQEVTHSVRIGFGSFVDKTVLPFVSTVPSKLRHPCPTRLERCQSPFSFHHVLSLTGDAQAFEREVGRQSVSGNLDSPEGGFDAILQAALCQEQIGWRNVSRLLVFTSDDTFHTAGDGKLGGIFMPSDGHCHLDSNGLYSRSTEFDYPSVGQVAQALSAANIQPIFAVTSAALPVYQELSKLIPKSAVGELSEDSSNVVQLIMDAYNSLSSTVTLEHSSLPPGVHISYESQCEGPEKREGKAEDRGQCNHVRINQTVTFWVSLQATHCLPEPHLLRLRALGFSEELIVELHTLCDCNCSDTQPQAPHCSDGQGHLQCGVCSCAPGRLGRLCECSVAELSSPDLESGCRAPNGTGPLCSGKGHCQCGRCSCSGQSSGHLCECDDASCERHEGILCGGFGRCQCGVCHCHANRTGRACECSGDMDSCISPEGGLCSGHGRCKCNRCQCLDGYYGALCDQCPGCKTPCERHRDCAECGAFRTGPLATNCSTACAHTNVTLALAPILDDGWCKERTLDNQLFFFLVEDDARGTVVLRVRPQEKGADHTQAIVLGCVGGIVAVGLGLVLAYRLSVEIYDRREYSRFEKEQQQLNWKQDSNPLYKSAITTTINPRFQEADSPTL
Protocol: MAdCAM-1 was formulated with TBS buffer to a final concentration of […], 50 μl of the solution was transferred to a 96-well plate, and the plate was coated with same at 4° C. overnight. The plate was washed with TBS buffer three times, then 150 μl of a blocking solution (TBS buffer containing 1% BSA) was added, and the plate was blocked at 37° C. for 1 h. […] 50 μl of the cell suspension was transferred to a 96-well plate so that the cell density reached 2×10^5 cells/well. Then 1 μl of the compound at different concentrations or DMSO was added and the plate was incubated at 37° C. for 1 h or 2 h. The plate was washed with TBS buffer to remove non-adherent cells. 50 μl of a substrate (4-nitrophenyl-N-acetyl-o-D-glucosaminide) was added and the plate was incubated at 37° C. for 2 h. […] The IC50 value was calculated using GraphPad Prism 6 software.

[1] = Pharmacokinetic test in rats; format: in vivo, SD rats
Protocol: Experimental animals: Male SD rats, about 220 g, 6-8 weeks old, 6 rats/compound, purchased from Chengdu Ddossy Experimental Animals Co., Ltd.
Experimental design: on the day of the test, 6 SD rats/compound were randomly grouped according to their body weights. The animals were fasted with water available for 12 to 14 h one day before the administration and were fed 4 h after the administration.

[2] = Test of stability in liver microsomes (mouse); format: in vitro ADME; details: 1 μM test compound, NADPH, 37° C.
Protocol: (§1) In this experiment, liver microsomes of three species, including monkey, rat and mouse, were used as in vitro models to evaluate the metabolic stability of the test compound.
(§2) At 37° C., 1 μM of the test compound was co-incubated with microsomal protein and coenzyme NADPH. At given time points of the reaction (5 min, 10 min, 20 min, 30 min, and 60 min), the reaction was terminated by adding ice-cold acetonitrile containing an internal standard. The LC-MS/MS method was used to measure the concentration of the test compound in the sample. T1/2 was calculated using the natural logarithm (ln) of the residual rate of the drug in the incubation system and the incubation time. In addition, the intrinsic clearance in liver microsomes CLint(mic) and the intrinsic clearance in liver CLint(Liver) were further calculated.

[3] = Test of stability in liver microsomes (rat); format: in vitro ADME; details: 1 μM test compound, NADPH, 37° C.
Protocol: as §1, §2

[4] = Test of stability in liver microsomes (monkey); format: in vitro ADME; details: 1 μM test compound, NADPH, 37° C.
Protocol: as §1, §2

[5] = read-out: Hepatic intrinsic clearance CLint(liver)
[6] = read-out: Hepatic microsomal intrinsic clearance CLint (mic)

T1 sequence (P05556 21-798, one chain of several): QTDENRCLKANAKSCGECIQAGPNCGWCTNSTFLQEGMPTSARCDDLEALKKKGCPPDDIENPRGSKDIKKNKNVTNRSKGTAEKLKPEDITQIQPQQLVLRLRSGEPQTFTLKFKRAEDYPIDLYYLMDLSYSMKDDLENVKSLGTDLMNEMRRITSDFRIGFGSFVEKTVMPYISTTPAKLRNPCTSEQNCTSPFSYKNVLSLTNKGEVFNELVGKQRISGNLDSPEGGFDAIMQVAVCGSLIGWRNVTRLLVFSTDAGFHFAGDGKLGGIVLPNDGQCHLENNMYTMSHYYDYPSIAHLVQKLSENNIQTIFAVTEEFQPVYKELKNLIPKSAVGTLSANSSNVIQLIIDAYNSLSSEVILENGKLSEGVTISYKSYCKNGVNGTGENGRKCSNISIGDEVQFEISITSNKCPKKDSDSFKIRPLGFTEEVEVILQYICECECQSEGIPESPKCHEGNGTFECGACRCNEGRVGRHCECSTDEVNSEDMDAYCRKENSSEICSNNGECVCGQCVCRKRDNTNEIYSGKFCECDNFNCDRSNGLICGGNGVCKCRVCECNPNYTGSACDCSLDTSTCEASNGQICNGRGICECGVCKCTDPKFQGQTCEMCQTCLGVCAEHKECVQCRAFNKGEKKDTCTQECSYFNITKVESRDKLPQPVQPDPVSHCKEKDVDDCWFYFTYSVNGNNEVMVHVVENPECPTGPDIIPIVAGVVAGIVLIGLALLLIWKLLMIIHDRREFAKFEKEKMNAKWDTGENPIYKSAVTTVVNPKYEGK

Structure (SMILES): Cc1cc(F)cc(C)c1-c1cc(C(CC(=O)O)NC(=O)C(CC(C)C)n2cc(CCN(C)CC3CC3(F)F)c(C(F)(F)F)cc2=O)cc2c1CCC2 (single isomer, unassigned) [Compound 1-2]
IC50 (integrin α4β1): > 100 nM

Structure (SMILES): Cc1cc(F)cc(C)c1-c1c(F)c(C(CC(=O)O)NC(=O)[C@H](CC(C)C)n2cc(CC3CN(C(C)C)C3)c(C(F)(F)F)cc2=O)c(F)c2c1CCC2 (stereo partly shown) [Compound 32-2]
CL ([1]; IV: 1 mg/kg): 20.2 mL/min/kg

Structure (SMILES): Cc1cc(-c2c(C)cc(F)cc2C)cc([C@H](CC(=O)O)NC(=O)[C@H](CC(C)C)n2cc(CCN(C)C)c(C(F)(F)F)cc2=O)c1F [Control compound A]
F ([1]; PO: 10 mg/kg vs iv […] (footnote, control compound A)): 23.9% | AUC ([1]; male, SD, rat, plasma, PO: 10 mg/kg (footnote, control compound A)): 900 ng·h/mL | clearance ([1]; male, SD, rat, plasma, iv 2.5 mg/kg (footnote, control compound A)): 45.8 mL/min/kg | half-life at 1 μM [2]: 49.3 min | CLint scaled at 1 μM [2, 5]: 111 mL/min/kg | microsomal CLint at 1 μM [2, 6]: 28.1 µL/min/mg | half-life at 1 μM [3]: 35.7 min | CLint scaled at 1 μM [3, 5]: 69.9 mL/min/kg | microsomal CLint at 1 μM [3, 6]: 38.8 µL/min/mg | half-life at 1 μM [4]: 10.6 min | CLint scaled at 1 μM [4, 5]: 176 mL/min/kg | microsomal CLint at 1 μM [4, 6]: 130 µL/min/mg

Structure (SMILES): Cc1cc(F)cc(C)c1-c1cc(C(CC(=O)O)NC(=O)C(CC(C)C)n2cc(CC3CCN(C(C)C)CC3)c(C(F)(F)F)cc2=O)cc2c1CCC2 (stereo not shown) [Trifluoroacetate salt of compound 22-2]
IC50 (integrin α4β7): < 0.5 nM | IC50 (integrin α4β1): > 100 nM

Structure (SMILES): Cc1cc(F)cc(C)c1-c1c(F)c(C(CC(=O)O)NC(=O)C(CC(C)C)n2cc(CCC3CCN(C)C3)c(C(F)(F)F)cc2=O)c(F)c2c1CCC2 (stereo not shown) [Trifluoroacetate salt of compound 26-2]
IC50 (integrin α4β7): < 1 nM | IC50 (integrin α4β1): > 100 nM

The next lines start with the values.

IC50 (integrin α4β7): < 1 nM | IC50 (integrin α4β1): > 500 nM
Structure (SMILES): COc1cc(C)c(-c2c(F)c(C(CC(=O)O)NC(=O)C(CC(C)C)n3cc(CCN(C)C)c(C(F)(F)F)cc3=O)c(F)c3c2CCC3)c(C)c1 (single isomer, unassigned) [Trifluoroacetate salt of compound 21-2]

IC50 (integrin α4β1): > 100 nM
Structure (SMILES): Cc1cc(F)cc(C)c1-c1c(F)c(C(CC(=O)O)NC(=O)[C@H](CC(C)C)n2cc(CCC3CCCN3C)c(C(F)(F)F)cc2=O)c(F)c2c1CCC2 (single isomer, unassigned) [Trifluoroacetate salt of compound 28-2]

IC50 (integrin α4β1): > 100 nM
Structure (SMILES): COc1cc(C)c(-c2c(F)c(C(CC(=O)O)NC(=O)C(CC(C)C)n3cc(CCN(C)C)c(C(F)(F)F)cc3=O)c(F)c3c2CCC3)c(C)c1 (stereo not shown) [Compound 21-A]

IC50 (integrin α4β7): < 0.5 nM | IC50 (integrin α4β1): > 100 nM | α4β1/α4β7 (integrin α4β1): 643
Structure (SMILES): Cc1ccc2[nH]ncc2c1-c1c(F)c(C(CC(=O)O)NC(=O)[C@H](CC(C)C)n2cc(CCN(C)C)c(C(F)(F)F)cc2=O)c(F)c2c1CCC2 (stereo partly shown) [Compound 33-2]

IC50 (integrin α4β7): < 0.5 nM | IC50 (integrin α4β1): > 300 nM | α4β1/α4β7 (integrin α4β1): 1143
Structure (SMILES): [2H]C([2H])([2H])Oc1cc(C)c(-c2c(F)c([C@H](CC(=O)O)NC(=O)C(CC(C)C)n3cc(CCN4CCC4)c(C(F)(F)F)cc3=O)c(F)c3c2CCC3)c(C)c1 (stereo partly shown) [Compound 40-2]
